# In patent US20260034112A1, “MULTI-CYCLIC IRAK1 AND IRAK4 INHIBITING COMPOUNDS AND USES THEREOF” (CHILDREN'S HOSPITAL MEDICAL CENTER, priority 2022, published 2026):
# System: THP1 cells
# Format: cell-based, human
# Settings: CA-4948 vs DMSO in THP1 cells
smiles,measurement,value
"Cc1cc(-c2nc(C(=O)Nc3cc4oc(N5CCOCC5)nc4nc3N3CC[C@@H](O)C3)co2)ccn1 [CA-4948, emavusertib]",Log(FC) of gene LOC101929243,0.7647
same,Log(FC) of gene LOC101929264,0.8417
same,Log(FC) of gene LOC101929280,0.7936
same,Log(FC) of gene LOC101929661,0.748
same,Log(FC) of gene LOC101929747,0.6127
same,Log(FC) of gene LOC101929814,−0.8463
same,Log(FC) of gene LOC102467073,0.73
same,Log(FC) of gene LOC102723589,0.8153
same,Log(FC) of gene LOC102723616,0.7122
same,Log(FC) of gene LOC102723714,0.6674
same,Log(FC) of gene LOC102723959,0.9881
same,Log(FC) of gene LOC102723975,1.408
same,Log(FC) of gene LOC102724098,−0.6399
same,Log(FC) of gene LOC102724169,0.726
same,Log(FC) of gene LOC102724217,0.6865
same,Log(FC) of gene LOC102724235,0.7375
same,Log(FC) of gene LOC102724248,0.652
same,Log(FC) of gene LOC102724409,1.429
same,Log(FC) of gene LOC102724528,−0.8481
same,Log(FC) of gene LOC102724545,0.8513
same,Log(FC) of gene LPAR2,0.7255
same,Log(FC) of gene M1AP,0.7754
same,Log(FC) of gene MAMDC4,0.628
same,Log(FC) of gene MBLAC1,−0.6134
same,Log(FC) of gene MDGA1,0.7307
same,Log(FC) of gene METTL12,0.6315
same,Log(FC) of gene MFI2-AS1,0.5997
same,Log(FC) of gene MGC12916,−0.9124
same,Log(FC) of gene MGC16142,0.5952
same,Log(FC) of gene MIR570,1.064
same,Log(FC) of gene MIR1244-1,0.6309
same,Log(FC) of gene MIR3187,1.121
same,Log(FC) of gene MROH6,0.8417
same,Log(FC) of gene MYLK-AS1,1.091
same,Log(FC) of gene MYO7B,0.6068
same,Log(FC) of gene NGFR,0.8097
same,Log(FC) of gene NOL3,0.6401
same,Log(FC) of gene NPFF,0.6633
same,Log(FC) of gene NPIPA3,1.643
same,Log(FC) of gene NPIPA8,0.8183
same,Log(FC) of gene ORM1,0.6834
same,Log(FC) of gene PAPPA2,0.8397
same,Log(FC) of gene PAQR6,0.6274
same,Log(FC) of gene PAX8,−0.6687
same,Log(FC) of gene PCBP3,0.5937
same,Log(FC) of gene PCOLCE2,−0.6424
same,Log(FC) of gene PDE5A,0.8121
same,Log(FC) of gene PDPN,0.7486
same,Log(FC) of gene PITX2,0.6882
same,Log(FC) of gene POLN,1.016
same,Log(FC) of gene POTEE,1.077
same,Log(FC) of gene PPIEL,0.6279
same,Log(FC) of gene PPP1R13L,0.6598
same,Log(FC) of gene PPP1R32,0.5902
same,Log(FC) of gene PROB1,0.6297
same,Log(FC) of gene PRR22,1.272
same,Log(FC) of gene PRSS53,0.79
same,Log(FC) of gene PSMG3-AS1,0.6249
same,Log(FC) of gene PTGER1,0.6218
same,Log(FC) of gene QRICH2,0.9066
same,Log(FC) of gene RAPGEFL1,0.6118
same,Log(FC) of gene RARRES3,0.6342
same,Log(FC) of gene RASSF8-AS1,−0.6459
same,Log(FC) of gene RCN3,0.6431
same,Log(FC) of gene RIMS2,−0.6856
same,Log(FC) of gene RN7SK,−0.7805
same,Log(FC) of gene RN7SL1,−0.6652
same,Log(FC) of gene RNU2-2P,−3.126
same,Log(FC) of gene RNU86,0.6578
same,Log(FC) of gene RNU105A,−0.7199
same,Log(FC) of gene RP3-476K8.3,0.6781
same,Log(FC) of gene RP11-261C10.3,−0.7243
same,Log(FC) of gene RP11-307C12.11,0.6268
same,Log(FC) of gene RP11-344E13.3,0.712
same,Log(FC) of gene RP11-454P21.1,0.5869
same,Log(FC) of gene RP11-540A21.2,−0.8218
same,Log(FC) of gene RPPH1,−1.864
same,Log(FC) of gene RPS18P9,0.9157
same,Log(FC) of gene RPSAP9,−0.6976
same,Log(FC) of gene RUFY4,0.9698
same,Log(FC) of gene SAMD5,−0.6977
same,Log(FC) of gene SAMD13,−0.6418
same,Log(FC) of gene SAP25,0.962
same,Log(FC) of gene SARM1,0.783
same,Log(FC) of gene SCART1,1.38
same,Log(FC) of gene SCN8A,0.7836
same,Log(FC) of gene SCXB,0.8721
same,Log(FC) of gene SEC31B,0.7359
same,Log(FC) of gene SEMA3B,0.6963
same,Log(FC) of gene SEMA3C,−0.6821
same,Log(FC) of gene SEMG1,−0.6203
same,Log(FC) of gene SERPINB2,−0.6225
same,Log(FC) of gene SIGLEC16,0.7305
same,Log(FC) of gene SIM1,−0.8741
same,Log(FC) of gene SLC2A14,0.5944
same,Log(FC) of gene SLC7A5P2,0.8202
same,Log(FC) of gene SLC7A11,−0.9711
same,Log(FC) of gene SLC22A20,0.7923
same,Log(FC) of gene SLC25A5-AS1,−0.5981
same,Log(FC) of gene SLCO2B1,−0.6999
same,Log(FC) of gene SLFNL1,0.599
same,Log(FC) of gene SLFNL1-AS1,0.7053
same,Log(FC) of gene SMA4,−0.6311
same,Log(FC) of gene SNORD3A,−1.579
same,Log(FC) of gene SNORD30,1.062
same,Log(FC) of gene SNORD79,0.5858
same,Log(FC) of gene SNX32,0.6555
same,Log(FC) of gene SPATA41,0.6171
same,Log(FC) of gene SPATC1,1.175
same,Log(FC) of gene SPRED1,−0.6296
same,Log(FC) of gene SPTBN5,1.272
same,Log(FC) of gene ST13P4,−0.623
same,Log(FC) of gene STX18-AS1,0.8594
same,Log(FC) of gene STXBP5-AS1,0.6561
same,Log(FC) of gene SYDE2,−0.6236
same,Log(FC) of gene SYTL2,0.7254
same,Log(FC) of gene TCAM1P,0.6669
same,Log(FC) of gene TEKT4P2,0.8324
same,Log(FC) of gene TESPA1,0.724
same,Log(FC) of gene TLR5,0.7065
same,Log(FC) of gene TMEM9B-AS1,0.8758
same,Log(FC) of gene TMEM86B,0.6481
same,Log(FC) of gene TMEM145,0.9943
same,Log(FC) of gene TMEM150A,−0.8108
same,Log(FC) of gene TMEM175,0.6594
same,Log(FC) of gene TMEM191A,0.6824
same,Log(FC) of gene TMEM254-AS1,0.767
same,Log(FC) of gene TMEM255A,−0.5904
same,Log(FC) of gene TMPRSS13,0.6639
same,Log(FC) of gene TNFAIP8L2-SCNM1,−1.749
same,Log(FC) of gene TNXB,1.806
same,Log(FC) of gene TP53I3,0.7187
same,Log(FC) of gene TPD52L1,0.7014
same,Log(FC) of gene TRIM72,0.5946
same,Log(FC) of gene TSKU,−0.6402
same,Log(FC) of gene TSPEAR-AS1,0.5855
same,Log(FC) of gene TTC4,−0.6304
same,Log(FC) of gene TUBA1A,0.5916
same,Log(FC) of gene TXLNB,0.8051
same,Log(FC) of gene UCN,1.177
same,Log(FC) of gene UCP3,0.6963
same,Log(FC) of gene ULK4P1,−0.9282
same,Log(FC) of gene UNC5CL,0.8031
same,Log(FC) of gene VAMP5,0.6392
same,Log(FC) of gene VWA7,0.8656
same,Log(FC) of gene WDFY3-AS2,0.6617
same,Log(FC) of gene WNK4,1.507
same,Log(FC) of gene WT1-AS,0.6396
same,Log(FC) of gene YJEFN3,1.024
same,Log(FC) of gene ZCWPW2,−0.722
same,Log(FC) of gene ZDHHC11,1.406
same,Log(FC) of gene ZNF284,−0.5982
same,Log(FC) of gene ZNF491,0.7713
same,Log(FC) of gene ZNF891,−0.7965
same,Log(FC) of gene ZP3,0.9339
same,Log(FC) of gene ZSWIM8-AS1,0.9316
